The results in this text go back to ChEMBL document CHEMBL1201862, “PubChem BioAssay data set” (2004).

Each structure is given as a SMILES string. Active and inactive are the calls of the source. Bounds are passed on as bounds.

Test [1] concerns the target T1, Microphthalmia-associated transcription factor (Homo sapiens, UniProt O75030).
T1 sequence (O75030 whole entry): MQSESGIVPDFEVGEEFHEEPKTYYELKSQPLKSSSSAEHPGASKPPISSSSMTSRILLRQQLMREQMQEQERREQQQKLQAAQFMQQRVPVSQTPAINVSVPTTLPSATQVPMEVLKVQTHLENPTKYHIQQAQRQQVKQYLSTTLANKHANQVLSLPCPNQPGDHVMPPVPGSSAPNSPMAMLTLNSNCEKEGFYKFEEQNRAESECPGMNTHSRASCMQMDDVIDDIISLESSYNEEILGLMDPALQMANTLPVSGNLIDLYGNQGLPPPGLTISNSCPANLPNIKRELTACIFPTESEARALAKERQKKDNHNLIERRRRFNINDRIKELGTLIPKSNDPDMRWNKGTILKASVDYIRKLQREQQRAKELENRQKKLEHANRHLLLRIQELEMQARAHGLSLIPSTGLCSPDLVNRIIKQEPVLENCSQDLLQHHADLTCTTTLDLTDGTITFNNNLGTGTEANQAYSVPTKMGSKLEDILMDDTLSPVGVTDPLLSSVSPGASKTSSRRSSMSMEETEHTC
Description: TRPM1 promoter luciferase signal decrease, dose response, MITF inhibitor project, cell-based, SK-MEL-5, cherry-picked, set 3 (AID 493073).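 Also: SK-MEL-5 melanoma cells with luciferase driven by the MITF target TRPM1 promoter.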 Format: functional.

A short description of test [2]: cells. Type of test: functional, cell-based.
Test [3] can be described thus: cells. Type of test: functional, cell-based. The source holds these as a separate data set.
Test [4] has as its target T2, Histone-lysine N-methyltransferase NSD2 (Homo sapiens, UniProt O96028).
T2 sequence (O96028 whole entry): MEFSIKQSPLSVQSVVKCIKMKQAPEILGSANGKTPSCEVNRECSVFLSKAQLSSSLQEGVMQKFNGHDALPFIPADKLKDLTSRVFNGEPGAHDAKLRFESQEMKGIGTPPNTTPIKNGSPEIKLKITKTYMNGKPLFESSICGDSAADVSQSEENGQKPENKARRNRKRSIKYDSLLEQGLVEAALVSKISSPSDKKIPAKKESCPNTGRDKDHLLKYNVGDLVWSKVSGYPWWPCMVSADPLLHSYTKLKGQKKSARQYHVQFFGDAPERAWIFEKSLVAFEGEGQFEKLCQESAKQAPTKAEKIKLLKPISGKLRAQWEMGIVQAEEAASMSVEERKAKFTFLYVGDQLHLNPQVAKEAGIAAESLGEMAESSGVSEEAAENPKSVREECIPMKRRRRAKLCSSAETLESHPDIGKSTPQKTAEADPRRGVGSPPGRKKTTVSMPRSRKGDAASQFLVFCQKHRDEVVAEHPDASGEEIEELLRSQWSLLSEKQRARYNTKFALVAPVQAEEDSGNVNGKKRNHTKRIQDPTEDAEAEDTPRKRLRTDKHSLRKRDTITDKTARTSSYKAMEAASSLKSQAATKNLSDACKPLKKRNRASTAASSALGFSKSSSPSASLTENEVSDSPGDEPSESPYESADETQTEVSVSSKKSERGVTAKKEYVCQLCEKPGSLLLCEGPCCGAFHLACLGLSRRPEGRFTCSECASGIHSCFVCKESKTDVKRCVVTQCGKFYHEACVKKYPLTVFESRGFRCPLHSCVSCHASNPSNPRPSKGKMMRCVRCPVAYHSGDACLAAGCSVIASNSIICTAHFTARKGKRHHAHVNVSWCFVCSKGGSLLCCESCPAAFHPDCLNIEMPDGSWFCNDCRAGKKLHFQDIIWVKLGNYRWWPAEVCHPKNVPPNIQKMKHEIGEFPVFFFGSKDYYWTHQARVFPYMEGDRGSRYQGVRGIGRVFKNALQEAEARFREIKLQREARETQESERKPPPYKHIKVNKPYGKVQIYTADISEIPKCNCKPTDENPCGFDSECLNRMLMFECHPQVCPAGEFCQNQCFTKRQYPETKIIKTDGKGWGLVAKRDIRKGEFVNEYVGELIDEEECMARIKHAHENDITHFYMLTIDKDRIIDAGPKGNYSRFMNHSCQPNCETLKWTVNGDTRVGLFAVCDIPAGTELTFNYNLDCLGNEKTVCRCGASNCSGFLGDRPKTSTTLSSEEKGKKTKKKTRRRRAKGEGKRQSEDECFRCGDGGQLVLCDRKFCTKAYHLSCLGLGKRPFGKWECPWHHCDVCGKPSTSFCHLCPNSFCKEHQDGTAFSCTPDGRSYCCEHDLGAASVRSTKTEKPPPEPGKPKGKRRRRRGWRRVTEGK
Type of test: biochemical.

Test [5] in a line: cells. Type of test: functional.
Test [6] has as its target T3, Polyadenylate-binding protein 1 (Homo sapiens, UniProt P11940). Description: PABP1 MLLE–PAM2 interaction inhibitors, dose response, miRNA deadenylation inhibitor project, biochemical, fluorescence polarization, Cy5-PAM2 peptide, secondary (AID 602260). Type of test: functional. The following applies: read-out: IC50_Mean.
In test [7] the target is T3, Polyadenylate-binding protein 1. Description: PABP1 MLLE–PAM2 binding inhibitor potency, dose response, biochemical, fluorescence polarization, FITC-PAM2 peptide (AID 602259). Type of test: functional. The following applies: read-out: IC50_Mean.
Test [8] deals with T4, Protein skinhead-1 (Caenorhabditis elegans, UniProt P34707).
T4 sequence (P34707 whole entry): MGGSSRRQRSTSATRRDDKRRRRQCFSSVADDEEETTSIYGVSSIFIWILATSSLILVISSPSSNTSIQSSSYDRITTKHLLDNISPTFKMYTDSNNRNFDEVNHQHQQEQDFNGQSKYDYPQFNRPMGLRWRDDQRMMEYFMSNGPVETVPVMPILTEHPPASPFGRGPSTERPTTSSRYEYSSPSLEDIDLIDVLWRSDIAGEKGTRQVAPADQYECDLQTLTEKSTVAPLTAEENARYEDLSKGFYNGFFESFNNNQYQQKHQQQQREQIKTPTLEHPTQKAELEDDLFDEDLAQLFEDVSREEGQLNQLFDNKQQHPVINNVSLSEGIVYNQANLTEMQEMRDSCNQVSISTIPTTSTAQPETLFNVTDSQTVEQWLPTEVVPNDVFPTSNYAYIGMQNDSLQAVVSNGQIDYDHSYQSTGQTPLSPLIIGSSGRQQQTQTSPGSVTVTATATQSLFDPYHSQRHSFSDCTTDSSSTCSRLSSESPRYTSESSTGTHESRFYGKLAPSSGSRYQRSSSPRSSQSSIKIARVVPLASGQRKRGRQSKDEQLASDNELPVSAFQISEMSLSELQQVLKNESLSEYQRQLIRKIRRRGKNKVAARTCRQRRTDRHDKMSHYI
Type of test: functional.

The target of test [9] is T5, Heat shock factor protein 1 (Mus musculus, UniProt P38532).
T5 sequence (P38532 whole entry): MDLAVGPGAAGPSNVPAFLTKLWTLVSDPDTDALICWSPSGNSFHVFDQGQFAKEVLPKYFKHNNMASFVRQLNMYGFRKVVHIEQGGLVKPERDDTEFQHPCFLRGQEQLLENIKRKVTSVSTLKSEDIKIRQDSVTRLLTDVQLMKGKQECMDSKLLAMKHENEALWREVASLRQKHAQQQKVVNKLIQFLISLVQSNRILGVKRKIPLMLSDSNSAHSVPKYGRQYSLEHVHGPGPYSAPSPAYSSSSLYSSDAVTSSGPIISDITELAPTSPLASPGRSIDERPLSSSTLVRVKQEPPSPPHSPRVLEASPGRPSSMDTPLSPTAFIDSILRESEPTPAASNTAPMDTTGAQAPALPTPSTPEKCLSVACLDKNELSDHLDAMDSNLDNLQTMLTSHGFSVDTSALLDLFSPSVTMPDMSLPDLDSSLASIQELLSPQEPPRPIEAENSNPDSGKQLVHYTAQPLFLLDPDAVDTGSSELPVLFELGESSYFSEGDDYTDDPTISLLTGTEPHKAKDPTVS
Description: inhibition of MG132-induced HSE-luciferase signal, confirmation, cell-based, NIH3T3, luminescence, dose retest (AID 2382).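 Also: NIH3T3 fibroblasts with HSF1-driven luciferase reporter stressed by proteasome inhibitor MG132; luminescence from HSF1-driven luciferase expression after 8 hours of MG132 stress.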 Type of test: functional.

Test [10] has as its target Glucose-6-phosphate 1-dehydrogenase (Homo sapiens, UniProt P11413). Description: human G6PD enzyme inhibitors, dose response, selectivity assay for P. falciparum G6PD inhibitor project, biochemical, fluorescence (AID 504792). Type of test: functional.
Test [11] can be described thus: inhibitors of intracellular T. cruzi replication, confirmation, NIH3T3 host cells, beta-gal luminescence (AID 2044).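 Also: intracellular parasites grown in NIH/3T3 mouse fibroblasts as host cells; luminescent beta-galactosidase reporter signal from transgenic T. cruzi replicating inside host cells; inhibitors lower the luminescence signal.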 Type of test: functional, cell-based.
Test [12] is described as follows: cytotoxicity toward NIH3T3 fibroblasts, dose response, counter-screen, cell-based, ATP luminescence, mouse fibroblasts (AID 2010).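 Also: cells exposed to compound for about 90 hours before reading.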 Format: functional.
Test [13] can be described thus: Luminescence Cell-Based Dose Retest to Confirm Inhibitors of Cancer Stem Cells. [Related pubchem assays (depositor defined):AID2717, AID2721]. Format: functional. The following applies: Homo sapiens.
For test [14], the system named is P388/ADR. The experiment in a line: cells. The conditions noted are these: Mus musculus. Type of test: functional.
For test [15], the system named is P388. Description: cells. Type of test: functional. The following applies: Mus musculus.
Test [16] relates to SN12K1. Description: cells. Format: functional. The following applies: Homo sapiens.

Sequence of Glucose-6-phosphate 1-dehydrogenase (P11413 whole entry): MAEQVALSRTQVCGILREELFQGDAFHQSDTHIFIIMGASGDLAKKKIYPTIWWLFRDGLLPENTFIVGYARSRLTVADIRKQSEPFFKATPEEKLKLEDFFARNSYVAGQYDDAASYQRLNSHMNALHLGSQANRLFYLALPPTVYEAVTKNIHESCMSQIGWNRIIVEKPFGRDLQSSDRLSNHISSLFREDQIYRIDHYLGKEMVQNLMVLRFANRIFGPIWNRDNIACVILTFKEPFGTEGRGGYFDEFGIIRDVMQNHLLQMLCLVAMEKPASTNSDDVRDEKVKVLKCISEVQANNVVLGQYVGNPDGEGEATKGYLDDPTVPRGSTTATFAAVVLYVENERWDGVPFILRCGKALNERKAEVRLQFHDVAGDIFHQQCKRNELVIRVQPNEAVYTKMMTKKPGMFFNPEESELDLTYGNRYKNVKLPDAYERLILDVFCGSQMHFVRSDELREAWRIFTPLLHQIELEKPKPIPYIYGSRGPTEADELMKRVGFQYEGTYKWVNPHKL
T3 sequence (P11940 whole entry): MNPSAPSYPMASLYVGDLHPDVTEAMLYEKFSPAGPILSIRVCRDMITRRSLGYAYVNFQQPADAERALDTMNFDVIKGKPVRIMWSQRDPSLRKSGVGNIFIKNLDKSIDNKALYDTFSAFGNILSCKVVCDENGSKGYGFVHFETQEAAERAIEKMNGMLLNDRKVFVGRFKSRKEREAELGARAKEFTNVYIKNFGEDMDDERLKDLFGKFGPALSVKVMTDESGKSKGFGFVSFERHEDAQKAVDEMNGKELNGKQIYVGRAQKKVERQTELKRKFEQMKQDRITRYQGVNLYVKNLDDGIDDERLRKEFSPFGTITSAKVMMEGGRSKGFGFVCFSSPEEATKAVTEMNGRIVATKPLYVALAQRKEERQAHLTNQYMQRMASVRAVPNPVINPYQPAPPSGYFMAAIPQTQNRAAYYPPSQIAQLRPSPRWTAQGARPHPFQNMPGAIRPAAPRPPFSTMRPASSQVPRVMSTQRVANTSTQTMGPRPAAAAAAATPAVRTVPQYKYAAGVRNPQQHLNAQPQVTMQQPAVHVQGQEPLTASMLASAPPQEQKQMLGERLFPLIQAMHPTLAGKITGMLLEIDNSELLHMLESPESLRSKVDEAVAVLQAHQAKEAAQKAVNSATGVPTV

A word on the AC50: it is the concentration giving half of the maximal activity seen. As for `Cc1cnc(NC(=O)c2nn(C)cc2[N+](=O)[O-])s1`, the AC50 in test [1] was 20.6 µM (active). What is called EC50 is the concentration that produces a half-maximal response. As for `CC(C)=N/N=C(\N)SCc1ccccc1`, the IC50 in [2] was > 29.9 µM (inactive). Moreover, the EC50 in test [3] was > 29.9 µM (inactive). On to `CCN(CC)CCCNC(=O)C1CCN(C(=O)c2oc3cc4sc(N(C)C)nc4cc3c2C)CC1`, for which, in test [4], the AC50 was > 20 µM (inactive). In the case of `Cc1ccc(-c2nnc(SCC#CCOC(=O)c3ccco3)o2)cc1`, the IC50 in test [5] is 4.78 µM (active). In the case of `CN(C=[N+](C)C)c1cccc2c1C(=O)c1ccccc1C2=O`, the IC50 in [6] is > 66 µM (inactive); in test [7] it was 58.5 µM (inactive). In addition, the AC50 in test [4] was > 20 µM (inactive). As to `Brc1ccc(-c2csc(-c3ccncc3)n2)cc1`, in test [8], the IC50 was 51.6 µM (inactive). Regarding `NCCN1C(=O)S/C(=C\c2ccc3c(c2)OCO3)C1=O`, the EC50 in test [9] was 1.48 µM (active). Further, the half-maximal activity concentration (AC50) in test [1] was 22.3 µM (active). Consider `COc1ccc(CC(=O)Nc2cc(S(=O)(=O)N3CCOCC3)ccc2N2CCOCC2)cc1`, for which the IC50 in [8] is > 100 µM (inactive). As to `O=C(O)CCc1ccc(-c2ccccc2)n1NC(=O)c1ccco1`, the IC50 in test [8] is > 100 µM (inactive). `COc1ccc(C2(CNC(=O)c3ccc(OC)c([N+](=O)[O-])c3)CCCCC2)cc1OC`: the IC50 in [10] was 60.7 µM (inactive).

For the compound `CCCCCn1nnc2c(=O)oc3ccccc3c21`, in [5], the IC50 is 2.67 µM (active). `N#C/C(=C\c1ccc(F)cc1)c1nc(-c2ccco2)cs1`: the IC50 in test [8] is > 100 µM (inactive). In the case of `Cc1ccc2sc(N(CCCN(C)C)C(=O)c3ccc(S(=O)(=O)N(C)C4CCCCC4)cc3)nc2c1C`, the EC50 in test [11] was 0.148 µM (active); in test [12] it was 10.3 µM (active). For the same compound, the AC50 in test [13] was 3.72 µM (active); in test [1], 18 µM (active). Take `CN(C)c1ccc(C=c2c3ccccc3n3c2c2ccccc2[n+]3C)cc1`: in test [10], the IC50 is > 80 µM (inactive). A word on the GI50: it is the concentration that inhibits growth by half. Take `CC[C@@H](C)[C@H]([C@H](CC(=O)N1CCC[C@@H]1[C@@H](OC)[C@H](C)C(=O)N[C@H](Cc1ccccc1)c1nccs1)OC)N(C)C(=O)[C@H](NC(=O)[C@@H](C(C)C)N(C)C)C(C)C`: the GI50 in test [14] and in test [15] was 0.000425 µM (active) in each case.

As to `CSc1nc2c(ncn2C2OC(CO)C(O)C(O)C2O)c(=O)n1C` (centres undefined), the GI50 was > 10 µM (inactive) in test [14], > 100 µM (inactive) in test [16] and > 100 µM (inactive) in [15]. As for `O=NN1C(c2ccccc2)C2CCCC(C2=O)C1c1ccccc1` (centres undefined), the GI50 in [14] is 22.5 µM (inactive); in test [16], 26.5 µM (inactive); in [15], 36.3 µM (inactive). With `O=[N+]([O-])c1ccc(/C=C/c2ccc(/N=N/c3ccc(/C=C/c4ccc([N+](=O)[O-])cc4S(=O)(=O)O)c(S(=O)(=O)O)c3)cc2S(=O)(=O)O)c(S(=O)(=O)O)c1`, the GI50 in test [14], in [16] and in [15] was > 100 µM (inactive) each time.

For `COC1/C=C/O[C@@]2(C)Oc3c(C)c(O)c4c(O)c(cc(O)c4c3C2=O)NC(=O)/C(C)=C\C=C\[C@H](C)C(O)[C@@H](C)[C@@H](O)[C@@H](C)[C@H](OC(C)=O)[C@@H]1C` (some centres undefined), the GI50 in [14] is 10.9 µM (inactive); in test [16], 15.2 µM (inactive); in [15] it was 5.41 µM (inactive). On to `O=C(NC(c1ccc(-c2ccccc2)cc1)c1cnccn1)C1CCN(Cc2cccs2)CC1` (centres undefined), for which the IC50 in test [8] was > 100 µM (inactive).

In the case of `CCCCCCCCCCCCCCCCCCOCC(COP(=O)([O-])OCC[N+](C)(C)C)OC` (centres undefined) [EDELFOSINE], the GI50 was 4.07 µM (inactive) in [14], 11.2 µM (inactive) in test [16] and 2.65 µM (inactive) in test [15].
